In patent US10568854B2, “Compositions and methods for treating kabuki syndrome and related disorders” (THE JOHNS HOPKINS UNIVERSITY, priority 2014, dated 2020):
“Also recorded” adds a separate entry of the source.

Tests used:
[1] = tested on: H3K4 trimethylation activity in Kmt2d^+/βGeo and Kmt2d^+/+ MEFs; test: H3K4me3 indicator in murine embryonic fibroblasts (MEFs); type: cell-based, mouse; settings: Kmt2d^+/βGeo cells treated with HDAC inhibitor
Text: An H3K4 trimethylation reporter was also created. This reporter is based on the H3 tail on one end and the TBP associated factor III (TAFIII) homeodomain on the other end; the TAFIII homeodomain only identifies and binds to trimethylated K4 on H3. When the H3K4 site gets trimethylated, the TAFIII homeodomain can bind to the modified H3 tail and bring the two parts of the separated GFP in close proximity. The activity of the epigenetic modification system can be quantified through fluorescence.
(§1) Epigenetic reporter alleles: Epigenetic reporter alleles were synthesized (OriGene, Rockville, Md.) using published sequences for component elements (Baird et al. (1999) Proc. Nail. Acad. Sci. 96:11241-6; Souslova et al. (2007) BMC Biotechnol. 7:37). Single nucleotide mutations were created using the QuickChange Lightening kit (Agilent Technologies Inc, Santa Clara, Calif.). For H4ac indicator, K5R, K8R, K12R, K16R and K20R (MUT indicator) were introduced. For H3K4me3 indicator, K4Q and D890A/W891A and M882A (three separate constructs) were introduced. For transient transfections, mouse embryonic fibroblasts (see below) were transfected with Fugene HD (Promega, Madison, Wis.), 48 hours prior to FACS. […] For drug stimulation, drug was added to the media 24 hours prior to FACS. For stable transfections in T293 (American Type Culture Collection) cells, 10 μg/ml of Blastocidin (Life Technologies, Carlsbad, Calif.) was added to the media for several weeks. For stable transfection in MEFs, the reporter was transferred to a ViraPower Lentiviral Expression System (Life Technologies, Carlsbad, Calif.). After selection with Blastocidin, the drug of interest was added 24 hours prior to FACS. SAHA, AR-42 and MS275 were purchased from Selleck (Selleck Chemicals, Houston, Tex.). […] FACS data were analyzed using FlowJo (Tree Star Inc, Ashland, Oreg.). A plasmid expressing HDAC3 was acquired from Addgene (Cambridge, Mass., plasmid 13819) and transfected into a stable cell line carrying the H4 acetyl reporter allele.

[2] = tested on: H3K4 trimethylation and histone acetylation; settings: Huang et al. (2011); cited from earlier work
[3] = tested on: H4ac indicator (H4 acetylation machinery activity) in HEK293 cells; test: H4ac (acetylation) indicator reporter assay, FACS; type: cell-based
Text: Design of the indicator constructs. A genetically encoded histone reporter allele system has been developed which can be used to monitor activity of any histone maintenance machinery component in live cells. Previously, FRET based epigenetic activity systems have been created (Lin and Ting (2004) Angew Chem Int Ed Engl. 24;43 (22):2940-3; Lin et al. (2004) J. Am. Chem. Soc. 19;126(19):5982-3; U.S. Pat. No. 7,056,683). However, FRET-based assays need a complex technological setup which is not widely available and FRET-based assays have been much more difficult to introduce into transgenic mouse models. […] The particular construct design is based on a circularly permutated green fluorescent protein (GFP) that lacks fluorescence unless the two parts of GFP are brought into close proximity by external forces (Baird et al. (1999) Proc. Natl. Acad. Sci. U.S.A. 28;96(20):11241-6). The constructs are targeted to the nucleus through a nuclear localization signal (NLS). Mutants were also created that knocked out the activity of the indicator allele.
The acetyl reporter protein quantifies the activity of the acetylation machinery (acetylation of H4 specifically at the 5th, 8th, 12th and 16th Lysine's) and comprises an H4 tail on one end (the target for acetylation) and a TBP associated factor II (TAFII) bromodomain on the other end of the reporter protein. The TAFII bromodomain only recognizes and binds to the acetylated H4 tail, resulting in reconstitution of GFP structure and function (i.e. fluorescence). Therefore, the reporter protein has no fluorescence unless it is acetylated by the acetylation system of the nucleus of the cell.
as §1

[4] = BHB in urine, colorimetric assay; type: in vivo, mouse
Protocol: (§2) BHB injection and BHB assay: For injections into mice, (R)-(−)-3-hydroxybutyric acid sodium salt (Santa Cruz Biotechnology, Dallas, Tex.) was used at an experimental dose of (10 mM/kg). To detect BHB in the urine (from either injections or ketogenic diet), the β-Hydroxybutyrate (Ketone Body) Colorimetric Assay Kit (Cayman Chemical Company, Ann Arbor, Mich.) was used. Urine from injections was drawn approximately 2 hours after injection and urine from mice on the ketogenic diet was taken in the early afternoon (unless otherwise stated in the text).

[5] = tested on: H3K4me3 indicator in HEK 293 cells; test: H3K4me3 indicator experiment with BHB, FACS; type: cell-based; settings: 24 hours before FACS; sodium salt
Protocol: (§3) Indicator experiments: HEK 293 cells were transfected with lipofectamine LTX (Invitrogen, Carlsbad, Calif.) with either the H3K4me3 indicator or the H4ac indicator, synthesized by OriGene Technologies (Rockville, Md.). Stable transfections were maintained through positive selection with blastacidin […] (Life Technologies, Grand Island, N.Y.). For BHB treatment, (R)-(−)-3-Hydroxybutyric acid sodium salt (Santa Cruz Biotechnology) was added to the medium 24 hours before FACS analysis (FACSVerse, BD Biosciences, Franklin Lakes, N.J.). Data was analyzed using FlowJo (Tree Star Inc., Ashland, Oreg.).

[6] = tested on: EdU+ cells in the GCL; test: EdU incorporation in the GCL (proliferation / survival); type: in vivo, mouse; settings: 10 mM/kg/day IP, two weeks, sodium salt
Text: Animals and treatment: The mouse model, Kmt2d^+/βGeo, also known as (Mll2Gt^(RRt024)Byg), was generated by BayGenomics (University of California, CA) through insertion of a gene trapped vector, and was used on a fully backcrossed C57BL/6J background. The original unbalanced (6:1 fat to protein ration) diet was purchased from Bio-Sery (Ketogenic Diet AIN-76A-Modified High Fat Paste F3666; Flemington, N.J.), while the balanced diet (4:1 ratio) was also from Bio-Serv (F6689 Rodent Diet, Ketogenic, Fat: Paste). Mice were treated for two weeks on the diet, with the paste replaced several times a week. During MWM testing, given the length of testing (week), the mice were treated for three weeks.
as §2, with “Urine from injections was drawn approximately 2 hours after injection and urine from mice on the ketogenic diet was taken in the early afternoon (unless otherwise stated in the text).” left out
Perfusion, sectioning and, staining: For perfusion, cryosectioning and immunofluorescence staining, see Bjornsson et al. (2014). […] EdU quantification was done blinded to genotype. Labeled cells were counted in every sixth slice in the granule cell layer of the dentate gyrus and average number per slice was calculated for each brain. […]

[7] = tested on: DCX positive cells in the GCL; test: Doublecortin positive fraction of the GCL (Example 2); type: in vivo, mouse; settings: 10 mM/kg/day IP, two weeks, sodium salt
Protocol: Perfusion, sectioning and, staining: For perfusion, cryosectioning and immunofluorescence staining, see Bjornsson et al. (2014). EdU (Life Sciences) in PBS/6% DMSO (10 mg/ml) injections (50 μg/g/day) were performed either with seven consecutive days followed by immediate perfusion or seven consecutive days of injection and then perfusion on the 30th day after the first injection. […] EdU was imaged with Click-iT EdU Alexa Flour 488 Imaging Kit (Invitrogen) as well as DAPI mounting with Vectamount (Vector Laboratories, Burlingame, Calif.). EdU quantification was done blinded to genotype. Labeled cells were counted in every sixth slice in the granule cell layer of the dentate gyrus and average number per slice was calculated for each brain. For immunofluorescence, primary antibodies included Doublecortin (Santa Cruz Biotechnology, 1:200 goat), trimethylated H3K4 (Cell Signaling, Danvers, Mass.; 1:500 rabbit), and Acetylated H3K9 and […] (Cell Signaling, 1:5000). Primary antibodies were incubated overnight at 4° C. in blocking buffer. Doublecortin area measurement: The DCX positive fraction of the GCL was measured by taking 4× pictures and using the Bezier tool on NS elements 2.0 software (Nikon) to measure the area of cells that expressed DCX as well as the entire granule cell layer.

[8] = tested on: H4ac indicator in HEK 293 cells; test: H4ac indicator experiment with BHB, FACS; type: cell-based; settings: 24 hours before FACS; sodium salt
Protocol: as §3

## Nc1ccccc1NC(=O)c1ccc(CNC(=O)OCc2cccnc2)cc1 [MS275, Pyridin-3-ylmethyl N-[[4-[(2-aminophenyl)carbamoyl]phenyl]methyl]carbamate]
[1]
  H3K4 trimethylation activity: enhanced; also recorded: improved
[2]
  effect on H3K4 trimethylation and histone acetylation: increase H3K4 trimethylation and histone acetylation

## O=C(CCCCCCC(=O)Nc1ccccc1)NO [SAHA, N′-hydroxy-N-phenyl-octanediamide]
[3]; 1 μM of SAHA
  cells easily discriminated from auto fluorescence (H4ac indicator): 5%
[3]; 2.5 μM of SAHA
  cells easily discriminated from auto fluorescence (H4ac indicator): 20%
[3]; 7.5 μM of SAHA
  cells easily discriminated from auto fluorescence (H4ac indicator): 40%
[3]; 10 μM of SAHA
  cells easily discriminated from auto fluorescence (H4ac indicator): 45%
[3]; FACS, culture systems
  fluorescence response of acetylation indicator to increasing amounts of drug: linear fluorescence response; also recorded: increasing fluorescence
[3]; FIG. 18A
  acetylation of the indicator: increases acetylation of the indicator
[3]; HEK293 cells stably expressing the H4ac indicator
  H4ac indicator signal upon stimulation: increased signal

## C[C@@H](O)CC(=O)[O-].[Na+] [BHB, (R)-(−)-3-hydroxybutyric acid sodium salt]
[4]; 10 mM/kg at 9 AM
  BHB level in the urine over a 12 hour day after one injection: decreased to vehicle injected levels over a matter of hours
[4]; 10 mM/kg, urine after 1.5 hours
  BHB level in the urine after injection: most similar to treatment with a ketogenic diet
[4]; after injection
  time of maximal drug activity: 1.5 h
[5]
  H3K4me3 indicator response to increased amounts in culture media: dose-dependent increased activity; also recorded: dose-dependent response
[6]
  EdU positive cells, treated Kmt2d^+/βGeo versus Kmt2d^+/+: did not recover back; also recorded: did not lead to a full recovery
[6]; Kmt2d^+/βGeo
  EdU positive cells (proliferation), treated versus vehicle: significant increase in EdU expression; also recorded: significant increase in EdU positive cells
[7]
  DCX positive cells, treated Kmt2d^+/βGeo versus treated Kmt2d^+/+: not to Kmt2d^+/+ BHB treated levels; also recorded: did not lead to a full recovery
[7]; Kmt2d^+/βGeo
  DCX positive cells, treated versus vehicle: increase in DCX expression; also recorded: significant increase in DCX positive cells
[8]
  H4Ac indicator response to increased amounts in culture media: dose-dependent increased activity; also recorded: dose-dependent response
